DC50 data for 19 compounds are collected here from patent publication US8003649B2 (AstraZeneca AB, priority 2007, dated 2011).

The target of this experiment is T1, Androgen Receptor (AR) (Homo sapiens, UniProt P10275, T878A).
T1 construct: cell based immuno-fluorescence assay using the LNCaP prostate epithelial cell line; endogenous in cells; host or cells: LNCaP clone FGC (ATCC CRL-1740)
T1 sequence (P10275 1-920 T878A): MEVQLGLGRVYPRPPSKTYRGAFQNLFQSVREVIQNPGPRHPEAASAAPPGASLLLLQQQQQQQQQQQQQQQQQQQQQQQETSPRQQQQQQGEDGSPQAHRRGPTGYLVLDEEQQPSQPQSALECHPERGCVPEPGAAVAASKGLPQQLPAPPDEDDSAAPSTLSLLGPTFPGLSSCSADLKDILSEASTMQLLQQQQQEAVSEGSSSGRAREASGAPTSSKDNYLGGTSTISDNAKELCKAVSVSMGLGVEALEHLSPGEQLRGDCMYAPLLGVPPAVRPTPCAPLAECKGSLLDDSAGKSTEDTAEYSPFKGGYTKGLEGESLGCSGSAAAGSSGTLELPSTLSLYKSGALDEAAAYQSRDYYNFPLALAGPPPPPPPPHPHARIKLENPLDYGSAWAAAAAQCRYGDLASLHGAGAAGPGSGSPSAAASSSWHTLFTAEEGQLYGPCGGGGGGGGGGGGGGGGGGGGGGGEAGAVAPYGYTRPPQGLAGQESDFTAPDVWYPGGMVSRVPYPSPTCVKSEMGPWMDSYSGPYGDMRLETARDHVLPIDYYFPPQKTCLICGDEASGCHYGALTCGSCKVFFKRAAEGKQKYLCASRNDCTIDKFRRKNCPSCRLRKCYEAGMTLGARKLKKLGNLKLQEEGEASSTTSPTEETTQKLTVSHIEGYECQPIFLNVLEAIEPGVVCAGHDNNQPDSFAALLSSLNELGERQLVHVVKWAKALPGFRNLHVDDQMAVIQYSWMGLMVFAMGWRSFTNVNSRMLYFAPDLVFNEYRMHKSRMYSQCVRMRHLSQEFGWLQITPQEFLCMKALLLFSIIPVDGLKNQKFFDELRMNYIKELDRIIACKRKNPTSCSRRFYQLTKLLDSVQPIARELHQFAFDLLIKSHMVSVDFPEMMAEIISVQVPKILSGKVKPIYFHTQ
Kind of experiment: LNCaP Androgen Receptor Down-regulation Cell Assay (immunofluorescence end point). To be noted: LNCaP prostate carcinoma cells, compound incubation 20-22 hours, 50% reduction of the AR signal; read-out: Androgen Receptor Down-regulation Assay (a) IC50/μM. The experiment is classed as cell-based. In outline: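 AR loss reported as IC50 from curve fits of fluorescence dose-response data, with AR immunostained and read by laser-scanning cytometry. Compound exposure was 20-22 h at 37° C in LNCaP cells grown in 5% charcoal-stripped FBS and plated overnight beforehand.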
As to `CC(C)(c1ccc(F)cc1)N1CCN(c2ccc3nnc(C(F)(F)F)n3n2)CC1` [Example 309, 6-[4-[1-(4-fluorophenyl)-1-methylethyl]piperazin-1-yl]-3-(trifluoromethyl)[1,2,4]triazolo[4,3-b]pyridazine], the DC50 turned out to be 1.6 µM.
For `OC1(c2cccc(F)c2)CCN(c2ccc3nnc(C(F)(F)F)n3n2)CC1` [Example 310, 4-(3-fluorophenyl)-1-[3-(trifluoromethyl)[1,2,4]triazolo[4,3-b]pyridazin-6-yl]piperidin-4-ol], the DC50 is 3.2 µM.
For the compound `COc1ccc(C2(O)CCN(c3ccc4nnc(C(F)(F)F)n4n3)CC2)cc1` [Example 311], the DC50 was 5 µM.
On to `COc1cccc(C2(O)CCN(c3ccc4nnc(C(F)(F)F)n4n3)CC2)c1` [Example 312], for which the DC50 is 2.6 µM.
On to `OC1(c2cccc(Cl)c2)CCN(c2ccc3nnc(C(F)(F)F)n3n2)CC1` [Example 313], for which the DC50 stood at 1.8 µM.
Regarding `COc1ccccc1C1(O)CCN(c2ccc3nnc(C(F)(F)F)n3n2)CC1` [Example 314], the DC50 turned out to be 4.6 µM.
With `OC1(c2ccccc2Cl)CCN(c2ccc3nnc(C(F)(F)F)n3n2)CC1` [Example 315, 4-(2-chlorophenyl)-1-[3-(trifluoromethyl)[1,2,4]triazolo[4,3-b]pyridazin-6-yl]piperidin-4-ol], the DC50 was 2 µM.
`N#Cc1ccccc1C1(O)CCN(c2ccc3nnc(C(F)(F)F)n3n2)CC1` [Example 317, 2-[4-hydroxy-1-[3-(trifluoromethyl)[1,2,4]triazolo[4,3-b]pyridazin-6-yl]piperidin-4-yl]benzonitrile]: the DC50 was found to be 4.1 µM.
In the case of `OC1(c2cncc(C(F)(F)F)c2)CCN(c2ccc3nnc(C(F)(F)F)n3n2)CC1` [Example 320, 4-[5-(trifluoromethyl)pyridin-3-yl]-1-[3-(trifluoromethyl)[1,2,4]triazolo[4,3-b]pyridazin-6-yl]piperidin-4-ol], the DC50 turned out to be 8.6 µM.
For `COc1ccc(C2(O)CCN(c3ccc4nnc(C(F)(F)F)n4n3)CC2)cn1` [Example 321, 4-(6-methoxypyridin-3-yl)-1-[3-(trifluoromethyl)[1,2,4]triazolo[4,3-b]pyridazin-6-yl]piperidin-4-ol], the DC50 amounted to 8 µM.
Take `Cc1ccnc(C2(O)CCN(c3ccc4nnc(C(F)(F)F)n4n3)CC2)c1` [Example 322, 4-(4-methylpyridin-2-yl)-1-[3-(trifluoromethyl)[1,2,4]triazolo[4,3-b]pyridazin-6-yl]piperidin-4-ol]: the DC50 is 9.6 µM.
Take `OC1(c2ccc(Cl)nc2)CCN(c2ccc3nnc(C(F)(F)F)n3n2)CC1` [Example 323, 4-(6-chloropyridin-3-yl)-1-[3-(trifluoromethyl)[1,2,4]triazolo[4,3-b]pyridazin-6-yl]piperidin-4-ol]: the DC50 was greater than 8.1 µM.
Take `OC1(c2nccs2)CCN(c2ccc3nnc(C(F)(F)F)n3n2)CC1` [Example 324, 4-(1,3-thiazol-2-yl)-1-[3-(trifluoromethyl)[1,2,4]triazolo[4,3-b]pyridazin-6-yl]piperidin-4-ol]: the DC50 worked out at 5.9 µM.
`FC(F)(F)c1nnc2ccc(N3CCC(c4c[nH]c5ncccc45)CC3)nn12` [Example 325, 6-[4-(1H-pyrrolo[2,3-b]pyridin-3-yl)piperidin-1-yl]-3-(trifluoromethyl)[1,2,4]triazolo[4,3-b]pyridazine]: the DC50 was greater than 1.2 µM.
As to `FC(F)(F)c1nnc2ccc(N3CCC(c4c[nH]c5ccncc45)CC3)nn12` [Example 326], the DC50 is 2 µM.
Take `FC(F)(F)c1nnc2ccc(N3CCC(c4c[nH]c5cnccc45)CC3)nn12` [Example 327]: the DC50 was found to be 1 µM.
For `FC(F)(F)c1nnc2ccc(N3CCC(c4c[nH]c5cccnc45)CC3)nn12` [Example 328] the value was 0.75 µM; for `COC(=O)c1ccccc1C1CCN(c2ccc3nnc(C(F)(F)F)n3n2)C1` (stereo not shown) [Example 333], 2.7 µM.
As for `COC(=O)c1cccc(C2CCN(c3ccc4nnc(C(F)(F)F)n4n3)C2)c1` (stereo not shown) [Example 334], the DC50 stood at 1.1 µM.
